These results are taken from US7592373B2 (Boehringer Ingelheim International GmbH, priority 2003, dated 2009).

Where a name gives a salt, the structure may show the parent alone.

A word on the melting point: it is the temperature, or range, at which the solid turns liquid. In the case of `O=C(CCc1ccc(CN2CCC(N3CCCCC3)C2)cc1)Nc1ccc(-c2ccc(Cl)cc2)cc1` (centres unmarked) [Example 6.25, N-(4′-chlorobiphenyl-4-yl)-3-[4-(3-piperidin-1-ylpyrrolidin-1-ylmethyl)phenyl]propionamide], the melting point came out at 168.8 °C.

`COc1cc(NC(=O)C#Cc2ccc(C(F)(F)F)cc2Cl)ccc1OCCN1CCC(OC)CC1` [Example 4.274, 3-(2-chloro-4-trifluoromethylphenyl)propynoic acid-{3-methoxy-4-[2-(4-methoxypiperidin-1-yl)ethoxy]phenyl}amide] showed a melting point of 195 to 197 °C.

As for `COCCN(C)Cc1ccc(/C=C/C(=O)Nc2ccc(-c3ccc(Cl)cc3)cc2)cc1` [Example 5.14], the melting point was in the range of 222 to 223 °C.

In turn, `O=C(/C=C/c1ccc(CNC2CCCCC2)cc1)Nc1ccc(-c2ccc(Cl)cc2)cc1` [Example 5.33, (E)-N-(4′-chlorobiphenyl-4-yl)-3-(4-cyclohexylaminomethylphenyl)acrylamide] returned a melting point of 247 to 248 °C.

The compound `O=C(/C=C/c1ccc(CN2CCC3(CCCC3)CC2)cc1)Nc1ccc(-c2ccc(Cl)cc2)cc1` [Example 5.25, (E)-3-[4-(8-azaspiro[4.5]dec-8-ylmethyl)phenyl]-N-(4′-chlorobiphenyl-4-yl)acrylamide] returned a melting point of 250 °C.

Take `O=C(CCc1ccc(CNCC2CCCCC2)cc1)Nc1ccc(-c2ccc(Cl)cc2)cc1` [Example 6.22, N-(4′-chlorobiphenyl-4-yl)-3-{4-[(cyclohexylmethylamino)methyl]phenyl}propionamide]: the melting point lay in the range of 201 to 204 °C.

Turning to `O=C(C#Cc1ccc(Cl)cc1Cl)Nc1ccc2oc(CCN3CCCC3)nc2c1` [Example 4.12, 3-(2,4-dichlorophenyl)propynoic acid-[2-(2-pyrrolidin-1-ylethyl)benzoxazol-5-yl]amide], the melting point came out at 130 °C.

Regarding `O=C(CCc1ccc(CN2CCC[C@@H]2CO)cc1)Nc1ccc(-c2ccc(Cl)cc2)cc1` [Example 6.8, N-(4′-chlorobiphenyl-4-yl)-3-[4-((R)-2-hydroxymethylpyrrolidin-1-ylmethyl)phenyl]propionamide], the melting point was in the range of 156 to 157 °C.

`O=C(C#Cc1ccc(CNCCC2CCCCC2)cc1)Nc1ccc(-c2ccc(Cl)cc2)cc1` [Example 1.52, 3-{4-[(cyclohexylethylamino)methyl]phenyl}propynoic acid-(4′-chlorobiphenyl-4-yl)amide] came in with a melting point of 156 to 157 °C.

`COc1cc(NC(=O)C#Cc2ccc(C(F)(F)F)cc2Cl)ccc1OCCN1CCC(C(N)=O)CC1` [Example 4.276, 1-(2-{4-[3-(2-chloro-4-trifluoromethylphenyl)propynoylamino]-2-methoxyphenoxy}ethyl)piperidine-4-carboxylic acid amide] registered a melting point of 150 °C.

On to `CCN(CC)CCOc1ccc(NC(=O)C#Cc2ccc(-c3ccccc3)cc2)cc1Cl` [Example 4.4, 3-biphenyl-4-ylpropynoic acid-[3-chloro-4-(2-diethylaminoethoxy)phenyl]amide], for which the melting point lay within 105 to 108 °C.

The compound `COCCN(Cc1ccc(CCC(=O)Nc2ccc(-c3ccc(Cl)cc3)cc2)cc1)CC(C)(C)O` [Example 6.14, N-(4′-chlorobiphenyl-4-yl)-3-(4-{[(2-hydroxy-2-methylpropyl)-(2-methoxyethyl)amino]methyl}phenyl)propionamide] showed a melting point of 108 to 109 °C.

`CCN(CC)CCOc1ccc(NC(=O)C#Cc2ccc(C(F)(F)F)cc2Cl)cc1N` [Example 4.22, 3-(2-chloro-4-trifluoromethylphenyl)propynoic acid-[3-amino-4-(2-diethylaminoethoxy)phenyl]amide] yielded a melting point of 127 to 130 °C.

For the compound `CN(Cc1ccc(/C=C/C(=O)Nc2ccc(-c3ccc(Cl)cc3)cc2)cc1)C1CCOCC1` [Example 5.7, (E)-N-(4′-chlorobiphenyl-4-yl)-3-(4-{[methyl-(tetrahydropyran-4-yl)amino]methyl}phenyl)acrylamide], the melting point lay within 196 to 197 °C.

With `CCN(CC)CCOc1ccc(NC(=O)C#Cc2ccc(C(F)(F)F)cc2Cl)cc1NS(C)(=O)=O` [Example 4.23, 3-(2-chloro-4-trifluoromethylphenyl)propynoic acid-[4-(3-diethylaminoethoxy)-3-methanesulfonylaminophenyl]amide], the melting point is 57 to 60 °C.

For `O=C(C#Cc1ccc(CN2CCC(N3CCCC3)CC2)cc1)Nc1ccc(-c2ccc(Cl)cc2)cc1` [Example 1.38], the melting point was 191 to 192 °C.

For the compound `O=C(C#Cc1ccc(CN2CCCCC2)cc1)Nc1ccc(-c2ccc(Cl)cc2)cc1` [Example 1.39, 3-(4-piperidin-1-ylemthylphenyl)propynoic acid-(4′-chlorobiphenyl-4-yl)amide], the melting point came out at 179.5 °C.

As for `COc1ccc(-c2ccc(NC(=O)CCc3ccc(CN4CCCC4)cc3)cc2)cc1` [Example 6.1, N-(4′-methoxybiphenyl-4-yl)-3-(4-pyrrolidin-1-ylmethylphenyl)propionamide], the melting point is 185 to 188 °C.

In turn, `CCN(CC)CCOc1ccc(NC(=O)C#Cc2ccc(Cl)cc2Cl)c(Cl)c1` (as salt: hydrochloride) [Example 4.8, 3-(2,4-dichlorophenyl)propynoic acid-[2-chloro-4-(2-diethylaminoethoxy)phenyl]amide] returned a melting point of 128 to 130 °C.

Compound `CN(Cc1ccc(C#CC(=O)Nc2ccc(-c3ccc(Cl)cc3)cc2)cc1)CC1CC1` [Example 1.40] registered a melting point of 181 °C.

`COc1cc(NC(=O)C#Cc2ccc(C(F)(F)F)cc2Cl)ccc1OCCN1CCOCC1` [Example 4.273, 3-(2-chloro-4-trifluoromethylphenyl)propynoic acid-[3-methoxy-4-(2-morpholin-4-ylethoxy)phenyl]amide] returned a melting point of 209 to 211 °C.

For the compound `NC1(c2ccc(C#CC(=O)Nc3ccc(-c4ccc(Cl)cc4)cc3)cc2)CC1` (as salt: trifluoroacetate) [Example 1.422, 3-[4-(1-aminocyclopropyl)phenyl]propynoic acid-(4′-chlorobiphenyl-4-yl)amide trifluoroacetate], the melting point was 160 to 164 °C.

`O=C(C#Cc1ccc(Cl)cc1)Nc1ccc2c(ccn2CCN2CCCC2)c1` [Example 4.9, 3-(4-chlorophenyl)propynoic acid-[1-(2-pyrrolidin-1-ylethyl)-1H-indol-5-yl]amide] gave a melting point of 135 to 144 °C.

For `O=C(CCc1ccc(CNCC2CC2)cc1)Nc1ccc(-c2ccc(Cl)cc2)cc1` [Example 6.15, N-(4′-chlorobiphenyl-4-yl)-3-{4-[(cyclopropylmethylamino)methyl]phenyl}propionamide], the melting point was in the range of 191 to 192 °C.

As to `CCCN(CCOc1ccc(NC(=O)C#Cc2ccc(C(F)(F)F)cc2Cl)cc1OC)CC1CC1` (as salt: hydrochloride) [Example 4.279, 3-(2-chloro-4-trifluoromethylphenyl)propynoic acid-{4-[2-(cyclopropylmethylpropylamino)ethoxy]-3-methoxyphenyl}amide hydrochloride], the melting point is 185 to 188 °C.

The compound `COc1cc(NC(=O)C#Cc2ccc(C(F)(F)F)cc2Cl)ccc1OCCN1CCc2ccccc2C1` (as salt: formate) [Example 4.275, 3-(2-chloro-4-trifluoromethylphenyl)propynoic acid-{4-[2-(3,4-dihydro-1H-isoquinolin-2-yl)ethoxy]-3-methoxyphenyl}amide formate] gave a melting point of 92 to 95 °C.

In turn, `COc1cc(NC(=O)C#Cc2ccc(C(F)(F)F)cc2Cl)ccc1OCCN(C)CC1CC1` (as salt: hydrochloride) [Example 4.278, 3-(2-chloro-4-trifluoromethylphenyl)propynoic acid-{4-[2-(cyclopropylmethylmethylamino)ethoxy]-3-methoxyphenyl}amide hydrochloride] displayed a melting point of 173 to 176 °C.

As to `O=C(C#Cc1ccc(-c2ccc(Cl)cc2)cc1)Nc1ccc(CN2CCC(O)(C(F)(F)F)CC2)cc1` [Example 3.17, 3-(4′-chlorobiphenyl-4-yl)propynoic acid-[4-(4-hydroxy-4-trifluoromethylpiperidin-1-ylmethyl)phenyl]amide], the melting point lay in the range of 194 to 200 °C.

`CN(Cc1ccc(CCC(=O)Nc2ccc(-c3ccc(Cl)cc3)cc2)cc1)Cc1cccnc1` [Example 6.33, N-(4′-chlorobiphenyl-4-yl)-3-{4-[(methylpyridin-3-ylmethylamino)methyl]phenyl}propionamide]: the melting point was in the range of 168 to 169 °C.

In turn, `O=C(/C=C/c1ccc(CN(CCO)C2CCCCC2)cc1)Nc1ccc(-c2ccc(Cl)cc2)cc1` [Example 5.38, (E)-N-(4′-chlorobiphenyl-4-yl)-3-(4-{[cyclohexyl-(2-hydroxyethyl)amino]methyl}phenyl)acrylamide] yielded a melting point of 178 to 179 °C.

`CC1CC(C)CN(Cc2ccc(NC(=O)C#Cc3ccc(-c4ccc(Cl)cc4)cc3)cc2)C1` (centres unmarked) [Example 3.12, 3-(4′-chlorobiphenyl-4-yl)propynoic acid-[4-(3,5-dimethylpiperidin-1-ylmethyl)phenyl]amide] had a melting point of 209 to 214 °C.

Take `O=C(C#Cc1ccc(CN2CCC(O)CC2)cc1)Nc1ccc(-c2ccc(Cl)cc2)cc1F` [Example 1.21, 3-[4-(4-hydroxypiperidin-1-ylmethyl)phenyl]propynoic acid-(4′-chloro-3-fluorobiphenyl-4-yl)amide]: the melting point fell in the range of 164 to 165 °C.

Regarding `O=C(CCc1ccc(CN2CCN3CCCC3C2)cc1)Nc1ccc(-c2ccc(Cl)cc2)cc1` (centres unmarked) [Example 6.16, N-(4′-chlorobiphenyl-4-yl)-3-[4-(hexahydropyrrolo[1,2-a]pyrazin-2-ylmethyl)phenyl]propionamide], the melting point worked out at 177 °C.

The compound `O=C(C#Cc1ccc(-c2ccc(Cl)cc2)cc1)Nc1ccc(CN2CCC(O)CC2)cc1` [Example 3.18, 3-(4′-chlorobiphenyl-4-yl)propynoic acid-[4-(4-hydroxy-1-piperidin-1-ylmethyl)phenyl]amide] gave a melting point of 243 to 247 °C.

Consider `CN(Cc1ccc(NC(=O)C#Cc2ccc(-c3ccc(Cl)cc3)cc2)cc1)CC1CC1` [Example 3.15, 3-(4′-chlorobiphenyl-4-yl)propynoic acid-{4-[(cyclopropylmethylmethylamino)methyl]phenyl}amide], for which the melting point was in the range of 164 to 167 °C.
